For one assay, the target named is T1, L-type Ca2+ channel (Rattus norvegicus, UniProt P22002).
T1 construct: single VSMC isolated form rat tail artery by using the whole cell version of the patch clamp technique; endogenous in cells; host or cells: freshly isolated vascular smooth muscle cells of rat tail artery
Nature of the assay: Ca2+ channel study, whole cell patch clamp in single VSMC. To be noted: IBMX applied after FMOC-PHF. The assay is classed as cell-based. As to the method: Ca^2+ channel activity was determined in single VSMC isolated form rat tail artery by using the whole cell version of the patch clamp technique (Hamill et al., 1981). Whole cell Ca^2+ current measurements were carried out by using an Axopatch-1B patch clamp amplifier (Axon Instruments). Patch micropipettes were pulled from borosilicate thin wall glass capillary tubes (OD 1.2 mm, ID 0.9 mm, FHS, Brunswick, Maine, USA) with a two stage micropipette puller (Narishige, PP83, Japan). The micropipettes were fire polished using a microforge (Leitz, Wetzlar, Germany). The tip diameter was approximately 1 μm with a resistance of 2-8 Mega Ohms. The cell attached to the bottom of a 3 cm Petri dish and was bathed in the medium containing 110 mM Tris, 5 mM CsCl, 20 mM HEPES, 30 mM glucose, 20 mM BaCl2, and 0.5 μM TTX. The polished pipette filled with a solution containing 75 mM Cs2 -aspartate, 10 mM EGTA, 2 mM ATP, 5 mM MgCl2, 5 mM K-pyruvate, 5 mM K-succinate, 25 mM glucose, 15 mM HEPES, 5 mM creatine phosphate-Na2, and 50 units/ml creatine kinase was placed against the cell membrane using a Narishige hydraulic micromanipulator. Gentle suction was applied via a tubing attached to the pipette holder. […] The currents were monitored using a digital oscilloscope (Nicolet Instrument Co., Madison, Wis., U.S.A.) and filtered at 3 KHz with a low pass filter (Axon Instruments, Foster City, Calif., U.S.A.). […]
In general terms: Patch clamp records ionic current or voltage across a cell membrane.

Another assay has as its system Na+ K+ ATPase. Put plainly: Na+ K+ ATPase activity as ouabain-sensitive 86Rb uptake in rat tail artery. The assay is classed as cell-based. As to the method:
Na^+ K^+ ATPase activity was measured as the ouabain-sensitive ^86 Rb uptake in rat tail artery using the method of Deth et al. Briefly, male Sprague-Dawley rats weighing 300 to 400 g were sacrificed by pentobarbital overdose, and the tail arteries removed and cut into strips. The strips were rinsed in ice-cold Krebs solution (composition: NaCl, 117 mM; KCl, 5 mM; NaHCO3, 27 mM, NaH2 PO4, 1 mM, MgSO4, 1.2 mM, CaCl2, 1.25 mM, glucose 11.0 mM) and incubated in oxygenated (95% O2, 5% CO2) Krebs buffer at 37° C. for 2 hours. For the final 30 minutes, Krebs solution with no KCl and 122 mM NaCl was used to sodium-load the tissues. Following this incubation, the strips were transferred to tubes containing Krebs buffer and 1 μCi of ^86 Rb, giving a final […] concentration of 5 mM. Various incubation media consisting of the above-described incubation solution plus 30% SHR plasma (Rb concentration kept constant in all cases) plus 1 mM ouabain and incubation plus 30% plasma plus 1 mM ouabain. Strips were incubated in the respective solutions for 18 minutes, then rinsed in four changes of ice-cold Krebs solution, blotted, weighed and counted in a gamma counter. The effect of the various incubations on ^86 Rb uptake was analyzed by ANOVA using the Student-Neuman-Keuuls test for post-hoc comparisons. All results are expressed as mean±SD.

A further assay has as its system rat tail artery. Put plainly: Blood vessel tension measurement, norepinephrine-induced tension in helical strips. The assay is classed as cell-based. To be noted: 40 mins incubation before second NE doses. As to the method:
The method was essentially similar to the one described by Pang, et al. (1980). Sprague-Dawley rats of either sex were anesthetized with pentobarbital (50 mg/kg) and the tail artery or aorta were isolated and removed and then placed in KHS buffer (115 mM NaCl, 5 mM KCl, 2.1 mM CaCl2, 1.2 mM MgSO4, 1.2 mM NaH2 PO4, 25 mM NaHCO3, and 11 mM glucose) oxygenated with 95% O2, 5% CO2. The vessels were cut helically and strips of approximately 1.5 cm were secured in a Sawyer-Bartlestone chamber containing KHS. The force development of the helical strips was measured with a Grass FT 0.03 force displacement transducer and recorded on a Grass Model 79D polygraph. Isolated tail artery helical strips were equilibrated for 1 hour prior to addition of any vasoconstricting agents. The strips were preloaded with a resting tension of 0.7 g and incubated at 37° C. (Pang et al., 1985). In all cases, the responsiveness of strips was first tested by adding 60 mM KCl and only responsive tissue was used in experiments. There were two series of experiments.
Two consecutive dose responses to NE in tension development with 1 hour interval were compared. The tissue was washed out after adding first accumulated doses of NE and incubated in normal KHS buffer for 20 mins. The control solvent or testing substances (PHF or LP compounds) were then applied and incubated for another 40 mins. […]

The test system of the next assay is SD rats. Nature of the assay: Blood pressure bioassay, bolus injection into anesthetized normotensive SD rats. The assay is classed as in vivo. To be noted: normotensive rat, as in Example 1. As to the method:
SD rats were anesthetized using Na pentobarbital, (50 mg/kg, i.p.) and catheters were inserted in the jugular vein for injection of plasma and drugs and in the carotid artery for measurement of b.p.
The chloroform methanol extract of SHR plasma was redissolved in saline and administered by bolus injection.

The test system of assay [1] is CaM (calmodulin)-Dependent PDE. Nature of the assay: Activation of CaM-dependent PDE (cGMP-PDE activity). In kind it is biochemical. As to the method:
The measurement of cGMP-PDE activity is based on the conversion of [^3 H]cGMP into [^3 H]GMP and its subsequent hydrolysis by snake venom into [^3 H]Guanosine (Wallace, et al., 1983; Wells, et al., 1975). The testing substance was added to a mixture containing 60 mM TES, 3 mM MgCl2, 0.8 mg/ml BSA, 25 μM EGTA, 50 uM CaCl2, 1 mM DTT, 0.5 μM cGMP and [^3 H]-cGMP (10-15×10^3 cpm) at a final pH of 7.5 for a total volume of 200 μl. The reaction was started by the addition of a fixed quantity of CaM-deficient PDE (Sigma Chemical Co., St. Louis, Mo.). Incubation carried out for 15 mins at 30° C., was terminated by boiling for 5 mins. The second reaction was initiated by the addition of 20 μl (10 mg/ml) of snake venom (Crotalus atrox). After 10 mins., the incubation was stopped with 700 μl of a second termination medium containing 0.1 mM guanosine. The total incubation mixture was then applied onto a column of QAE-Sephadex A-25 (formate form) to separate labeled nucleotides from the labeled nucleosides formed. The resin was eluted with 4 ml of 20 mM ammonium formate (pH 6.5), and the radioactivity of the eluate containing [^3 H]guanosine was determined in a liquid scintillation counter. A standard curve of PDE stimulation by CaM was obtained by the addition of different concentrations of purified bovine heart CaM (Sigma) (0.1-200 ng/tube). […]

For assay [2], the system named is vascular smooth muscle cells isolated from rat tail artery. Put plainly: Intracellular calcium determination (fura-2). In kind it is cell-based. To be noted: 45 mins incubation before KCl; 30 mM KCl for pure PHF, 15 mM KCl for FMOC-PHF. As to the method: All studies were performed in vascular smooth muscle cells isolated from Sprague Dawley (SD) rat tail artery as described in Wang, et al. (Wang, et al. 1989) with modification. Male SD rats (100-200 g body weight) were anaesthetized with sodium pentobarbital (65 mg/kg body weight intraperitoneally) and the tail artery dissected out and immersed in cold Ca and Mg free Hanks' balanced salt solution (HBSS, Gibco). The blood was washed off from the artery and the connective tissue was then removed. Using a dissecting microscope inside a laminar flow hood, the artery was cut into pieces of about 1.5 cm and placed in 4° C. Ca free HBSS for 30 minutes. […]
Primary cultured vascular smooth muscle cells were incubated for 45 minutes in DMEM containing 5 μM fura-2 acetoxymethyl ester (Molecular Probes, INC.) at room temperature. […] After about 5 min, the coverslip with attached cells was placed in a Sykes-Moore chamber of 1-ml volume on the stage of an inverted microscope, and fluorescence measurements were made with a Fluoroplex III sepctrofluorometer (Tracor Northern). […] R is the ratio of fluorescence in the sample excited at […] which represents intracellular free calcium concentration. […]
The monolayer cells in 1 mM Ca^2+ 5K buffer were challenged by testing substances and the change of R was recorded for a certain period of time. […]

T1 sequence (P22002 whole entry): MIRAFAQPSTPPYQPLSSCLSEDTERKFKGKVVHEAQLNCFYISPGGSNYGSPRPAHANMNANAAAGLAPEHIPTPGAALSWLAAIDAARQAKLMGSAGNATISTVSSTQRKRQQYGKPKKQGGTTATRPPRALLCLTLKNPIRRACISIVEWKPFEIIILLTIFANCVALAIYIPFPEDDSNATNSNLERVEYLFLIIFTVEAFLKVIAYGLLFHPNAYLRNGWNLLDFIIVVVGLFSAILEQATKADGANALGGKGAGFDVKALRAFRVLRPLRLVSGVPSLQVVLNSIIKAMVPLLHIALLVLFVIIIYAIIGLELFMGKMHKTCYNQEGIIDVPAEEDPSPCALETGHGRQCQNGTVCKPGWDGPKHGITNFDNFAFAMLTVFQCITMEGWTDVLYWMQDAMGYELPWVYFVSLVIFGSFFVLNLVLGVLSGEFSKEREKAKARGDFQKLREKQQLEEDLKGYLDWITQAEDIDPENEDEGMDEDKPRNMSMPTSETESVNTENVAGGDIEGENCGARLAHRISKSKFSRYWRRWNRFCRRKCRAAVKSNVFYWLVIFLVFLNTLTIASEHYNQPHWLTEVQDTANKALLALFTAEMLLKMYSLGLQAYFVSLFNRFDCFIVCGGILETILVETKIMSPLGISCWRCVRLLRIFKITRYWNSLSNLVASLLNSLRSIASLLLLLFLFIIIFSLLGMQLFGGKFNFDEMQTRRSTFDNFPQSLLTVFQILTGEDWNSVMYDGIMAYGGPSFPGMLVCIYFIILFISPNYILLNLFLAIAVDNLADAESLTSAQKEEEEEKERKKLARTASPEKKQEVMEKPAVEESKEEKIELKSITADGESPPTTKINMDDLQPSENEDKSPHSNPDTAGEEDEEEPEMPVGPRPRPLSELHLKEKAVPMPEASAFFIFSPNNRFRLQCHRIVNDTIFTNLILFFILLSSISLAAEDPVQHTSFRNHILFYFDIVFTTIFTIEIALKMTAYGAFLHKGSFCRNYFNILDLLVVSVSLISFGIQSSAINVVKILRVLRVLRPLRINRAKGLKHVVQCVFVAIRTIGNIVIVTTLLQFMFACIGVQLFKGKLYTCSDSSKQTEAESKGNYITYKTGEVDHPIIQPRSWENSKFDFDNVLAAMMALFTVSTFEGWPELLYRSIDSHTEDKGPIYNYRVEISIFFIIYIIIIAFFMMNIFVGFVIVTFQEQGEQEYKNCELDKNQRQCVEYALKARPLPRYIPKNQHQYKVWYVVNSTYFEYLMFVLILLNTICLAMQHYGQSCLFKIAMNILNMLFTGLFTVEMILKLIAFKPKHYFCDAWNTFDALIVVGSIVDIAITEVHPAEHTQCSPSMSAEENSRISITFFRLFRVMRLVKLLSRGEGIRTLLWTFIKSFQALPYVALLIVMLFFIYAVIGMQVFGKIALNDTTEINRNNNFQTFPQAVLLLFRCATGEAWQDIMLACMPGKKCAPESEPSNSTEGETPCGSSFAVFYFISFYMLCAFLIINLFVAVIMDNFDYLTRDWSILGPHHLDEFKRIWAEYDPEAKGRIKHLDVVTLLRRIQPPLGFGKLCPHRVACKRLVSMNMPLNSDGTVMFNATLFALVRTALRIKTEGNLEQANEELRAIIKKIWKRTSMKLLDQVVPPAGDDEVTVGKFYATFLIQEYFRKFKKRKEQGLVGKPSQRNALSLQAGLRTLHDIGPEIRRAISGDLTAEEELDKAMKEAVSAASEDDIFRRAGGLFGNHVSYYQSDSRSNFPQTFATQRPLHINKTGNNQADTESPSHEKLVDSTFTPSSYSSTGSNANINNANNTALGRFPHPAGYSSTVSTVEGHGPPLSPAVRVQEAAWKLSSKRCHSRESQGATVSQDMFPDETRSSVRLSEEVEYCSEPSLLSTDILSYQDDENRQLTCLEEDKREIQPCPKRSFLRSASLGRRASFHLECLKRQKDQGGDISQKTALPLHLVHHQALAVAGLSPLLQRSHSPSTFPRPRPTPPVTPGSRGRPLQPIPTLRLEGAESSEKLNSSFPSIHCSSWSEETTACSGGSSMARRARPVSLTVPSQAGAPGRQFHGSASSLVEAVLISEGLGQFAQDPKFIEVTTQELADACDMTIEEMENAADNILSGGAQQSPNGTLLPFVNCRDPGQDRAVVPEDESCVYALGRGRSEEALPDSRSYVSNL
T1 sequence (P54290 25-944 partner limits assumed): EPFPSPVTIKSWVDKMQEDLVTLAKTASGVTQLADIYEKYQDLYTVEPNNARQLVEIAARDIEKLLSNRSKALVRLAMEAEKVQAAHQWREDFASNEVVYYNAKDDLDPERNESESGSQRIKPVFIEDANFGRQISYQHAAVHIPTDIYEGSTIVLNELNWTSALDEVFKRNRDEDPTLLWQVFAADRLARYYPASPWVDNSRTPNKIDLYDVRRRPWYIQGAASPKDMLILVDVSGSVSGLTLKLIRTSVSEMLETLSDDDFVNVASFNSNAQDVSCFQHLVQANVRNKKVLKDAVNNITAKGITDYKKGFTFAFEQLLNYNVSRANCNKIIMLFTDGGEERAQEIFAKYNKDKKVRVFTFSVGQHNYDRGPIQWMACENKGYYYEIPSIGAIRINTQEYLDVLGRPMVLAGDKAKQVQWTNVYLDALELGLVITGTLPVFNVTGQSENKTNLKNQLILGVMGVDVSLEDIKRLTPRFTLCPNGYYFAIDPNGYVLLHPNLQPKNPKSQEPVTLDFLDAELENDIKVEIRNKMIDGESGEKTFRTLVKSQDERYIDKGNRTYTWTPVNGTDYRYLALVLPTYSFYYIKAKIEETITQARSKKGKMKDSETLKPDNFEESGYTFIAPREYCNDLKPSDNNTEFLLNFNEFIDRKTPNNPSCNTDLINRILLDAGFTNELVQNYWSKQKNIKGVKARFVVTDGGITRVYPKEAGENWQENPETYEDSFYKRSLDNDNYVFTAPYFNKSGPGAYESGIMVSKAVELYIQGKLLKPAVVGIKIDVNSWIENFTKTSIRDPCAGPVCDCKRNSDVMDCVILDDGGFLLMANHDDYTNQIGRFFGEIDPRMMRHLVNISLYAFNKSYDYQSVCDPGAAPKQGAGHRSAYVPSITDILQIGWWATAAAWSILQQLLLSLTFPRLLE
T1 sequence (P54290 945-1091 partner limits assumed): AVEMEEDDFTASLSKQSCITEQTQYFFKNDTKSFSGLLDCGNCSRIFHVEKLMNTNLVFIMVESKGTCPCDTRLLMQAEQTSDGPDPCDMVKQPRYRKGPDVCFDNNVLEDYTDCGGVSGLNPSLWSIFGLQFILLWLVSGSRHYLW
T1 sequence (P54287 whole entry partner): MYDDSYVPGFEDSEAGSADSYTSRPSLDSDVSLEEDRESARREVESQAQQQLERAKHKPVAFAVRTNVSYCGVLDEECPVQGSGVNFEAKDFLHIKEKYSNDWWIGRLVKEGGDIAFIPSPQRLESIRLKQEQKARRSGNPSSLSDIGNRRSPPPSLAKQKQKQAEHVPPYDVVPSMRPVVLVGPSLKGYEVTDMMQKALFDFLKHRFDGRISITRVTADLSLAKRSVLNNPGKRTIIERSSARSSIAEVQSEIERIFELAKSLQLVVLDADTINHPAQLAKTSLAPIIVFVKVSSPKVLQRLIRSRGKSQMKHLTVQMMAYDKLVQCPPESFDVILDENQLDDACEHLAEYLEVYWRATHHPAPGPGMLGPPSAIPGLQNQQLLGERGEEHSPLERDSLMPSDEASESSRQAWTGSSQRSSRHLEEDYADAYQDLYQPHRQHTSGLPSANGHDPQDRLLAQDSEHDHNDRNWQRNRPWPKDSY

For the molecule `CC(C)Cn1c(=O)n(C)c(=O)c2[nH]cnc21` [IBMX], the “effect on calcium channel current increased by FMOC-PHF” value on L-type Ca2+ channel was “reversal”.

Consider Lysophosphatidyl inositol, for which the “increase in 86Rb uptake” value with Na+ K+ ATPase (600 micromolar, p<0.05) amounted to 31%. Moreover, the “effect on norepinephrine induced tension development” value in the assay with rat tail artery is reported as “potentiations of norepinephrine induced tension”. Further, the “hypertensive response (blood pressure in normotensive rats)” value with SD rats is on record as “delayed, sustained increase in blood pressure”.

For the molecule Lysophosphatidyl serine, the “increase in 86Rb uptake” value in the assay with Na+ K+ ATPase (30 micromolar, p<0.01) is reported as 46%. For the same molecule, the “effect on phosphodiesterase (PDE) activity” value in assay [1] is “stimulated PDE activity”. Moreover, the “hypertensive response (blood pressure in normotensive rats)” value in the assay with SD rats is reported as “delayed sustained increase in blood pressure”.

Turning to lysophosphatidyl choline [LPC], the “effect on intracellular calcium ([Ca2+]i increment induced by KCl)” value in assay [2] is listed as “significantly augments the increase in intracellular calcium induced by KCl”.

These data come from patent publication US5739274A, “Active component of parathyroid hypertensive factor” (CV Technologies, Inc., priority 1995, dated 1998).
